In patent US10662204B2 (PFIZER INC., priority 2018, dated 2020):

Key:
[1] = molecular target: T1, GDP-loaded KRAS (1-169) G12C, C51S, C80L, C118S (Homo sapiens, UniProt P01116, C118S/C51S/C80L/G12C); experiment: Mass Spectrometry Reactivity Assay (MSRA): covalent adduct of compound and KRAS G12C, Percent Modification; format: binding; conditions: for MSRA (% modification) 5.0 μM 0.25 hr: 5.0 μM compound; for MSRA (% modification) 10 μM 0.25 hr / MSRA (% modification) 10 μM 0.50 hr: 10 μM compound
T1 construct: GDP-loaded KRAS (1-169) G12C, C51S, C80L, C118S
Procedure, shortened: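 Covalent labelling is measured by intact mass: deconvoluted modified and unmodified peak intensities yield percent modification. Compound, usually 5 μM or 10 μM final, reacts at room temperature with 5 μM GDP-bound KRAS G12C (1-169, C51S/C80L/C118S) in Hepes pH 7.5/NaCl/glycerol, sampled at 1, 15, 30, 60 min.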

KRAS G12C = KRAS G12C (Homo sapiens, UniProt P01116, G12C); experiment: Cell Activity Assay: accumulation of GDP-bound KRAS G12C in MIAPaCa-2 cells (Raf-1 RBD capture, MSD readout); format: cell-based; set-up: endogenous in cells; host or cells: MIAPaCa-2; conditions: 6 hours, assay limit is 30.00
Procedure, shortened: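 IC50 came from a 4-parameter fit of Ras signal normalized between DMSO and full-inhibition controls. Readout: lysate GTP-Ras bound to immobilized Raf-1 RBD, quantified with pan-Ras antibody and MSD electrochemiluminescence. Lysates derived from MIAPaCa-2 cells treated 6 h with serially diluted compound, 0.3% DMSO.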

Structure (SMILES) | MSRA (% modification) 5.0 μM 0.25 hr [1] | MSRA (% modification) 10 μM 0.25 hr [1] | IC50 (KRAS G12C) | MSRA (% modification) 10 μM 0.50 hr [1]
C=CC(=O)N1CCN(c2nc(OC[C@]3(F)CCCN(C)C3)nc3c(Oc4c(Cl)c(F)cc5[nH]ncc45)nccc23)CC1 [Example 02I, 1-[4-(8-[(5-chloro-6-fluoro-1H-indazol-4-yl)oxy]-2-{[(3S)-3-fluoro-1-methylpiperidin-3-yl]methoxy}pyrido[3,4-d]pyrimidin-4-yl)piperazin-1-yl]prop-2-en-1-one] | 81% | – | 0.049 µM | –
C=CC(=O)N1CCN(c2ncnc3c(Oc4c(C)cccc4Cl)nccc23)CC1 [Example 03, 1-{4-[8-(2-Chloro-6-methylphenoxy)pyrido[3,4-d]pyrimidin-4-yl]piperazin-1-yl}prop-2-en-1-one] | – | – | > 30 µM | 15%
C=CC(=O)N1CCN(c2ncnc3c(Oc4c(C)ccc5[nH]ncc45)nc(C(F)(F)F)cc23)CC1 [Example 03A, 1-(4-{8-[(5-methyl-1H-indazol-4-yl)oxy]-6-(trifluoromethyl)pyrido[3,4-d]pyrimidin-4-yl}piperazin-1-yl)prop-2-en-1-one] | – | – | 2.74 µM | 28%
C=CC(=O)N1CCN(c2nc(N3CCN(C)CC3)nc3c(Oc4c(C)ccc5[nH]ncc45)nccc23)CC1 [Example 03B, 1-(4-{8-[(5-methyl-1H-indazol-4-yl)oxy]-2-(4-methylpiperazin-1-yl)pyrido[3,4-d]pyrimidin-4-yl}piperazin-1-yl)prop-2-en-1-one] | – | – | 27.1 µM | 6%
C=CC(=O)N1CCN(c2ncnc3c(Oc4c(C)ccc5[nH]ncc45)cccc23)C[C@H]1C [Example 03C, 1-[(2R)-2-methyl-4-{8-[(5-methyl-1H-indazol-4-yl)oxy]quinazolin-4-yl}piperazin-1-yl]prop-2-en-1-one] | – | 3% | 24.2 µM | 8%
C=CC(=O)N1CCN(c2nc(OCCN(C)C)nc3c(Oc4c(C)ccc5[nH]ncc45)cccc23)CC1 [Example 03E, 1-(4-{2-[2-(dimethylamino)ethoxy]-8-[(5-methyl-1H-indazol-4-yl)oxy]quinazolin-4-yl}piperazin-1-yl)prop-2-en-1-one] | – | – | 1.44 µM | 40%
C=CC(=O)N1CCN(c2nc(NC(C)c3nncn3C)nc3c(Oc4c(C)ccc5[nH]ncc45)cccc23)CC1 (stereo not shown) [Example 03F, 1-[4-(8-[(5-methyl-1H-indazol-4-yl)oxy]-2-{[1-(4-methyl-4H-1,2,4-triazol-3-yl)ethyl]amino}quinazolin-4-yl)piperazin-1-yl]prop-2-en-1-one] | – | – | > 30 µM | 12%
C=CS(=O)(=O)N1CCN(c2ncnc3c(Oc4c(Cl)c(C)cc5[nH]ncc45)nccc23)CC1 [Example 04, 8-[(5-chloro-6-methyl-1H-indazol-4-yl)oxy]-4-[4-(ethenylsulfonyl)piperazin-1-yl]pyrido[3,4-d]pyrimidine] | – | – | 11.7 µM | 25%
C=CC(=O)N1CCN(c2ncnc3c(Oc4c(Cl)ccc5[nH]ncc45)nc(C(F)(F)F)cc23)CC1 [Example 04A] | – | – | 2.26 µM | 40%
C=CC(=O)N1CCN(c2nc(OCCCN(C)C)nc3c(Oc4c(C)ccc5[nH]ncc45)nccc23)CC1 [Example 04B, 1-(4-{2-[3-(dimethylamino)propoxy]-8-[(5-methyl-1H-indazol-4-yl)oxy]pyrido[3,4-d]pyrimidin-4-yl}piperazin-1-yl)prop-2-en-1-one] | – | – | 23 µM | 21%
C=CC(=O)N1CCN(c2ncnc3c(Oc4c(C(F)(F)F)ccc5[nH]ncc45)nccc23)CC1 [Example 04C, 1-[4-(8-{[5-(trifluoromethyl)-1H-indazol-4-yl]oxy}pyrido[3,4-d]pyrimidin-4-yl)piperazin-1-yl]prop-2-en-1-one] | – | – | 18.2 µM | 21%
C=CC(=O)N1CCN(c2nc(NCC3CC(=O)N(C)C3)nc3c(Oc4c(C)ccc5[nH]ncc45)cccc23)CC1 (stereo not shown) [Example 04F, 4-[({4-(4-acryloylpiperazin-1-yl)-8-[(5-methyl-1H-indazol-4-yl)oxy]quinazolin-2-yl}amino)methyl]-1-methylpyrrolidin-2-one] | – | – | 7.28 µM | 43%

Continued by falling IC50 (KRAS G12C), values first:

MSRA (% modification) 5.0 μM 0.25 hr [1] | MSRA (% modification) 10 μM 0.25 hr [1] | IC50 (KRAS G12C) | MSRA (% modification) 10 μM 0.50 hr [1] | Structure (SMILES)
77% | – | 0.855 µM | – | C=CC(=O)N1CCN(c2nc(OCC3CC(=O)N(C)C3)nc3c(Oc4c(Cl)c(F)cc5[nH]ncc45)nccc23)CC1 (stereo not shown) [Example 03J, 4-[({4-(4-acryloylpiperazin-1-yl)-8-[(5-chloro-6-fluoro-1H-indazol-4-yl)oxy]pyrido[3,4-d]pyrimidin-2-yl}oxy)methyl]-1-methylpyrrolidin-2-one]
51% | – | 0.842 µM | 72% | C=CC(=O)N1CCN(c2nc(OC[C@@H]3COCCN3C)nc3c(Oc4c(Cl)c(F)cc5[nH]ncc45)nccc23)CC1 [Example 03H, 1-[4-(8-[(5-chloro-6-fluoro-1H-indazol-4-yl)oxy]-2-{[(3S)-4-methylmorpholin-3-yl]methoxy}pyrido[3,4-d]pyrimidin-4-yl)piperazin-1-yl]prop-2-en-1-one]
26% | – | 0.62 µM | – | C=CC(=O)N1CCN(c2nc(O[C@@H]3CCOC3)nc3c(Oc4c(Cl)c(F)cc5[nH]ncc45)nccc23)CC1 [Example 02J, 1-(4-{8-[(5-chloro-6-fluoro-1H-indazol-4-yl)oxy]-2-[(3R)-tetrahydrofuran-3-yloxy]pyrido[3,4-d]pyrimidin-4-yl}piperazin-1-yl)prop-2-en-1-one]
71% | 60% | 0.585 µM | 62% | C=CC(=O)N1CCN(c2nc(N3CC(N(C)C)C3)nc3c(Oc4c(Cl)c(C)cc5[nH]ncc45)nccc23)CC1 [Example 04E, 1-(4-{8-[(5-chloro-6-methyl-1H-indazol-4-yl)oxy]-2-[3-(dimethylamino)azetidin-1-yl]pyrido[3,4-d]pyrimidin-4-yl}piperazin-1-yl)prop-2-en-1-one]
73% | 75% | 0.584 µM | – | C=CC(=O)N1CCN(c2nc(N3CC(C)(C#N)C3)nc3c(Oc4c(Cl)c(F)cc5[nH]ncc45)nc(Cl)cc23)CC1 [Example 02G, 1-{4-(4-acryloylpiperazin-1-yl)-6-chloro-8-[(5-chloro-6-fluoro-1H-indazol-4-yl)oxy]pyrido[3,4-d]pyrimidin-2-yl}-3-methylazetidine-3-carbonitrile]
– | 53% | 0.505 µM | – | C=CC(=O)N1CCN(c2nc(N3CC(N(C)C)C3)nc3c(Oc4c(Cl)c(F)cc5[nH]ncc45)nccc23)CC1 [Example 02H, 1-(4-{8-[(5-chloro-6-fluoro-1H-indazol-4-yl)oxy]-2-[3-(dimethylamino)azetidin-1-yl]pyrido[3,4-d]pyrimidin-4-yl}piperazin-1-yl)prop-2-en-1-one]
65% | 73% | 0.465 µM | – | C=CC(=O)N1CCN(c2nc(OC[C@H]3CCOC3)nc3c(Oc4c(Cl)c(F)cc5[nH]ncc45)nccc23)CC1 [Example 04H, 1-(4-{8-[(5-chloro-6-fluoro-1H-indazol-4-yl)oxy]-2-[(3S)-tetrahydrofuran-3-ylmethoxy]pyrido[3,4-d]pyrimidin-4-yl}piperazin-1-yl)prop-2-en-1-one]
– | 49% | 0.393 µM | – | C=CC(=O)N1CCN(c2nc(OC[C@@H]3CCCN3C)nc3c(Oc4c(Cl)c(F)cc5[nH]ncc45)nc(Cl)cc23)C[C@H]1C [Example 04G, 1-[(2R)-4-(6-chloro-8-[(5-chloro-6-fluoro-1H-indazol-4-yl)oxy]-2-{[(2S)-1-methylpyrrolidin-2-yl]methoxy}pyrido[3,4-d]pyrimidin-4-yl)-2-methylpiperazin-1-yl]prop-2-en-1-one]
– | 72% | 0.155 µM | – | C=CC(=O)N1CCN(c2nc(OC[C@@H]3CCCN3C)nc3c(Oc4c(C)ccc5[nH]ncc45)nc(Cl)cc23)CC1 [Example 03G, 1-[4-(6-chloro-8-[(5-methyl-1H-indazol-4-yl)oxy]-2-{[(2S)-1-methylpyrrolidin-2-yl]methoxy}pyrido[3,4-d]pyrimidin-4-yl)piperazin-1-yl]prop-2-en-1-one]
31% | – | 0.146 µM | – | C=CC(=O)N1CCN(c2nc(OC[C@@H]3CCCN3C)nc3c(Oc4c(Cl)ccc5[nH]ncc45)cccc23)CC1 [Example 02L, 1-[4-(8-[(5-chloro-1H-indazol-4-yl)oxy]-2-{[(2S)-1-methylpyrrolidin-2-yl]methoxy}quinazolin-4-yl)piperazin-1-yl]prop-2-en-1-one]
52% | – | 0.06 µM | – | C=CC(=O)N1CCN(c2nc(Oc3cccnc3CC)nc3c(Oc4c(Cl)c(F)cc5[nH]ncc45)nccc23)CC1 [Example 03I, 1-(4-{8-[(5-chloro-6-fluoro-1H-indazol-4-yl)oxy]-2-[(2-ethyl-pyridin-3-yl)oxy]pyrido[3,4-d]pyrimidin-4-yl}piperazin-1-yl)prop-2-en-1-one]
